Experiments:
Format in all cases: in vivo
[1] = test system: black-grass; test: Test Example 3: weedkilling efficacy through soil treatment; H: black-grass
Method in brief: (§1)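 Crop and weed responses were judged three weeks after a uniform surface spray of the water-diluted emulsion at the given g/ha rate. Seeds sat beneath about 1.5 cm of sterilized diluvial soil, and boxes stood in a greenhouse at 25 to 30° C.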

[2] = test system: Italian ryegrass; test: Test Example 3: weedkilling efficacy through soil treatment; I: Italian ryegrass
Method in brief: as §1

[3] = test system: common wind-grass; test: Test Example 3: weedkilling efficacy through soil treatment; J: common wind-grass; details: soil treatment, treatment dosage 80 g/ha
Source text: (§2) Weedkilling Efficacy Test Through Soil Treatment
(§3) Sterilized diluvial soil was introduced into 21 cm long, 13 cm wide, 7 cm deep plastic boxes, and seeds of crabgrass, green foxtail, barnyard grass, wild oat, black-grass, Italian ryegrass, common wind-grass, Indian mallow, redroot pigweed, fig-leafed goosefoot, chickweed, catchweed, birds-eye speedwell, corn, soybean, rice, wheat, beet and rapeseed were each spot-sown, and covered with about 1.5 cm of soil. Next, emulsions of compounds of the present invention prepared according to compounding example 2 were diluted with water to give the specified dosages, and applied uniformly onto the soil surface with a small sprayer. The plants were grown by placing the plastic boxes in a greenhouse at 25 to 30° C., and 3 weeks after the pesticide treatment the effect on each type of plant was investigated on the basis of the assessment criteria of test example 1.
(§4) A: barnyard grass, B: bulrush, C: oval-leafed pondweed, D: crabgrass, E: green foxtail, F: barnyard grass, G: wild oat, H: black-grass, I: Italian ryegrass, J: common wind-grass, K: Indian mallow, L: redroot pigweed, M: fig-leafed goosefoot, N: chickweed, O: catchweed, p: birds-eye speedwell, a: transplanted rice, b: directly sown rice, c: corn, d: soybean, e: wheat, f: beet, g: rapeseed
(§5) Further, pesticide dosage (g/ha) indicates the concentration regulated such that treatment was with only the stated number of grams (g), when calculated per hectare (ha).

[4] = test system: wheat; test: Test Example 3: soil treatment, effect on crop; e: wheat
Method in brief: as §1

[5] = test system: rapeseed; test: Test Example 3: soil treatment, effect on crop; g: rapeseed; details: soil treatment, treatment dosage 80 g/ha
Source text: as §2, §3, §4, §5

[6] = test system: barnyard grass; test: Test Example 1: weedkilling efficacy, preemergent weed treatment in the submerged state; A: barnyard grass; details: treatment dosage 252 g/ha
Method in brief: (§6)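 Visual scores against set criteria were taken 3 weeks after treatment. Compounds, as diluted emulsions at specified g/ha, went onto the water surface of 4 cm-flooded alluvial soil pots on the day weeds were sown and 2.5-leaf rice was transplanted; greenhouse held 25–30 °C.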

[7] = test system: bulrush; test: Test Example 1: weedkilling efficacy, preemergent weed treatment in the submerged state; B: bulrush; details: treatment dosage 252 g/ha
Method in brief: as §6

[8] = test system: oval-leafed pondweed; test: Test Example 1: weedkilling efficacy, preemergent weed treatment in the submerged state; C: oval-leafed pondweed; details: treatment dosage 252 g/ha
Method in brief: as §6

[9] = test system: transplanted rice; test: Test Example 1: preemergent weed treatment in the submerged state, effect on crop; a: transplanted rice; details: treatment dosage 252 g/ha
Method in brief: as §6

[10] = test system: barnyard grass; test: Test Example 2: weedkilling efficacy, growth period weed treatment in the submerged state; A: barnyard grass; details: treatment dosage 252 g/ha
Method in brief: (§7)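 Barnyard grass, bulrush and oval-leafed pondweed sown in alluvial soil under 4 cm flooding, greenhouse 25 to 30° C. At 1-2 leaf stage, water-diluted emulsion applied to the water surface at stated g/ha dosages; effects scored 3 weeks later.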

[11] = test system: bulrush; test: Test Example 2: weedkilling efficacy, growth period weed treatment in the submerged state; B: bulrush; details: treatment dosage 252 g/ha
Method in brief: as §7

[12] = test system: oval-leafed pondweed; test: Test Example 2: weedkilling efficacy, growth period weed treatment in the submerged state; C: oval-leafed pondweed; details: treatment dosage 252 g/ha
Method in brief: as §7

[13] = test system: crabgrass; test: Test Example 3: weedkilling efficacy through soil treatment; D: crabgrass; details: treatment dosage 315 g/ha
Method in brief: as §1

[14] = test system: green foxtail; test: Test Example 3: weedkilling efficacy through soil treatment; E: green foxtail; details: treatment dosage 315 g/ha
Method in brief: as §1

[15] = test system: Indian mallow; test: Test Example 3: weedkilling efficacy through soil treatment; K: Indian mallow; details: treatment dosage 315 g/ha
Method in brief: as §1

[16] = test system: redroot pigweed; test: Test Example 3: weedkilling efficacy through soil treatment; L: redroot pigweed; details: treatment dosage 315 g/ha
Method in brief: as §1

[17] = test system: chickweed; test: Test Example 3: weedkilling efficacy through soil treatment; N: chickweed; details: treatment dosage 315 g/ha
Method in brief: as §1

[18] = test system: birds-eye speedwell; test: Test Example 3: weedkilling efficacy through soil treatment; p: birds-eye speedwell; details: treatment dosage 315 g/ha
Method in brief: as §1

[19] = test system: directly sown rice; test: Test Example 3: soil treatment, effect on crop; b: directly sown rice; details: treatment dosage 315 g/ha
Method in brief: as §1

[20] = test system: corn; test: Test Example 3: soil treatment, effect on crop; c: corn; details: treatment dosage 315 g/ha
Method in brief: as §1

[21] = test system: soybean; test: Test Example 3: soil treatment, effect on crop; d: soybean; details: treatment dosage 315 g/ha
Method in brief: as §1

[22] = test system: beet; test: Test Example 3: soil treatment, effect on crop; f: beet; details: treatment dosage 315 g/ha
Method in brief: as §1

[23] = test system: crabgrass; test: Test Example 4: weedkilling efficacy by foliar treatment; D: crabgrass; details: treatment dosage 315 g/ha
Protocol: (§8) Testing of Weedkilling Efficacy by Foliar Treatment
(§9) Sterilized diluvial soil was introduced into 21 cm long, 13 cm wide, 7 cm deep plastic boxes, and seeds of crabgrass, green foxtail, barnyard grass, wild oat, black-grass, Italian ryegrass, common wind-grass, Indian mallow, redroot pigweed, fig-leafed goosefoot, chickweed, catchweed, birds-eye speedwell, corn, soybean, rice, wheat, beet and rapeseed were each spot-sown, and covered with about 1.5 cm of soil, then the plants were grown in a greenhouse at 25 to 30° C.
(§10) After they had grown for 14 days, emulsions of compounds of the present invention prepared according to compounding example 2 were diluted with water to give the specified dosages, and applied uniformly onto the stem and leaf parts with a small sprayer. 3 weeks after the pesticide treatment the effect on each type of plant was investigated on the basis of the assessment criteria of test example 1.
as §4, §5

[24] = test system: green foxtail; test: Test Example 4: weedkilling efficacy by foliar treatment; E: green foxtail; details: treatment dosage 315 g/ha
Protocol: as §8, §9, §10, §4, §5

[25] = test system: black-grass; test: Test Example 4: weedkilling efficacy by foliar treatment; H: black-grass; details: treatment dosage 315 g/ha
Protocol: as §8, §9, §10, §4, §5

[26] = test system: Italian ryegrass; test: Test Example 4: weedkilling efficacy by foliar treatment; I: Italian ryegrass; details: treatment dosage 315 g/ha
Protocol: as §8, §9, §10, §4, §5

[27] = test system: Indian mallow; test: Test Example 4: weedkilling efficacy by foliar treatment; K: Indian mallow; details: treatment dosage 315 g/ha
Protocol: as §8, §9, §10, §4, §5

[28] = test system: redroot pigweed; test: Test Example 4: weedkilling efficacy by foliar treatment; L: redroot pigweed; details: treatment dosage 315 g/ha
Protocol: as §8, §9, §10, §4, §5

[29] = test system: fig-leafed goosefoot; test: Test Example 4: weedkilling efficacy by foliar treatment; M: fig-leafed goosefoot; details: treatment dosage 315 g/ha
Protocol: as §8, §9, §10, §4, §5

[30] = test system: chickweed; test: Test Example 4: weedkilling efficacy by foliar treatment; N: chickweed; details: treatment dosage 315 g/ha
Protocol: as §8, §9, §10, §4, §5

[31] = test system: catchweed; test: Test Example 4: weedkilling efficacy by foliar treatment; O: catchweed; details: treatment dosage 315 g/ha
Protocol: as §8, §9, §10, §4, §5

[32] = test system: birds-eye speedwell; test: Test Example 4: weedkilling efficacy by foliar treatment; p: birds-eye speedwell; details: treatment dosage 315 g/ha
Protocol: as §8, §9, §10, §4, §5

[33] = test system: directly sown rice; test: Test Example 4: foliar treatment, effect on crop; b: directly sown rice; details: treatment dosage 315 g/ha
Protocol: as §8, §9, §10, §4, §5

[34] = test system: corn; test: Test Example 4: foliar treatment, effect on crop; c: corn; details: treatment dosage 315 g/ha
Protocol: as §8, §9, §10, §4, §5

[35] = test system: soybean; test: Test Example 4: foliar treatment, effect on crop; d: soybean; details: treatment dosage 315 g/ha
Protocol: as §8, §9, §10, §4, §5

[36] = test system: wheat; test: Test Example 4: foliar treatment, effect on crop; e: wheat; details: treatment dosage 315 g/ha
Protocol: as §8, §9, §10, §4, §5

[37] = test system: beet; test: Test Example 4: foliar treatment, effect on crop; f: beet; details: treatment dosage 315 g/ha
Protocol: as §8, §9, §10, §4, §5

[38] = soil treatment, treatment dosage 80 g/ha

CC(C)(C(=O)Nc1cc(C(F)F)cc(Cl)n1)N1COCN(c2ccccc2)C1=O [A-2-27]
H: black-grass, weedkilling efficacy grade [1, 38]: 5 (weed kill ratio 90% or more, (practically complete withering))
I: Italian ryegrass, weedkilling efficacy grade [2, 38]: 5 (weed kill ratio 90% or more, (practically complete withering))
J: common wind-grass, weedkilling efficacy grade [3]: 5 (weed kill ratio 90% or more, (practically complete withering))
e: wheat, effect on crop grade [4, 38]: 1 (weed kill ratio 5% or more, less than 20%)
g: rapeseed, effect on crop grade [5]: 2 (weed kill ratio 20% or more, less than 40%)

COc1nsc(NC(=O)C(C)(C)N2COC(C)=C(c3ccccc3)C2=O)n1 [B-1-15]
A (barnyard grass) weedkilling efficacy grade [6]: 5 (weed kill ratio 90% or more, (practically complete withering))
B (bulrush) weedkilling efficacy grade [7]: 5 (weed kill ratio 90% or more, (practically complete withering))
C (oval-leafed pondweed) weedkilling efficacy grade [8]: 5 (weed kill ratio 90% or more, (practically complete withering))
a (transplanted rice) effect on crop grade [9]: 0 (weed kill ratio 5% or less (practically no effect))
A (barnyard grass) weedkilling efficacy grade [10]: 4 (weed kill ratio 70% or more, less than 90%)
B (bulrush) weedkilling efficacy grade [11]: 5 (weed kill ratio 90% or more, (practically complete withering))
C (oval-leafed pondweed) weedkilling efficacy grade [12]: 5 (weed kill ratio 90% or more, (practically complete withering))
D (crabgrass) weedkilling efficacy grade [13]: 5 (weed kill ratio 90% or more, (practically complete withering))
E (green foxtail) weedkilling efficacy grade [14]: 5 (weed kill ratio 90% or more, (practically complete withering))
H (black-grass) weedkilling efficacy grade ([1]; treatment dosage 315 g/ha): 5 (weed kill ratio 90% or more, (practically complete withering))
I (Italian ryegrass) weedkilling efficacy grade ([2]; treatment dosage 315 g/ha): 5 (weed kill ratio 90% or more, (practically complete withering))
K (Indian mallow) weedkilling efficacy grade [15]: 4 (weed kill ratio 70% or more, less than 90%)
L (redroot pigweed) weedkilling efficacy grade [16]: 5 (weed kill ratio 90% or more, (practically complete withering))
N (chickweed) weedkilling efficacy grade [17]: 5 (weed kill ratio 90% or more, (practically complete withering))
P (birds-eye speedwell) weedkilling efficacy grade [18]: 5 (weed kill ratio 90% or more, (practically complete withering))
b (directly sown rice) effect on crop grade [19]: 5 (weed kill ratio 90% or more, (practically complete withering))
c (corn) effect on crop grade [20]: 0 (weed kill ratio 5% or less (practically no effect))
d (soybean) effect on crop grade [21]: 0 (weed kill ratio 5% or less (practically no effect))
e (wheat) effect on crop grade ([4]; treatment dosage 315 g/ha): 4 (weed kill ratio 70% or more, less than 90%)
f (beet) effect on crop grade [22]: 4 (weed kill ratio 70% or more, less than 90%)
D (crabgrass) weedkilling efficacy grade [23]: 5 (weed kill ratio 90% or more, (practically complete withering))
E (green foxtail) weedkilling efficacy grade [24]: 5 (weed kill ratio 90% or more, (practically complete withering))
H (black-grass) weedkilling efficacy grade [25]: 5 (weed kill ratio 90% or more, (practically complete withering))
I (Italian ryegrass) weedkilling efficacy grade [26]: 4 (weed kill ratio 70% or more, less than 90%)
K (Indian mallow) weedkilling efficacy grade [27]: 5 (weed kill ratio 90% or more, (practically complete withering))
L (redroot pigweed) weedkilling efficacy grade [28]: 5 (weed kill ratio 90% or more, (practically complete withering))
M (fig-leafed goosefoot) weedkilling efficacy grade [29]: 3 (weed kill ratio 40% or more, less than 70%)
N (chickweed) weedkilling efficacy grade [30]: 4 (weed kill ratio 70% or more, less than 90%)
O (catchweed) weedkilling efficacy grade [31]: 4 (weed kill ratio 70% or more, less than 90%)
P (birds-eye speedwell) weedkilling efficacy grade [32]: 4 (weed kill ratio 70% or more, less than 90%)
b (directly sown rice) effect on crop grade [33]: 4 (weed kill ratio 70% or more, less than 90%)
c (corn) effect on crop grade [34]: 4 (weed kill ratio 70% or more, less than 90%)
d (soybean) effect on crop grade [35]: 4 (weed kill ratio 70% or more, less than 90%)
e (wheat) effect on crop grade [36]: 3 (weed kill ratio 40% or more, less than 70%)
f (beet) effect on crop grade [37]: 4 (weed kill ratio 70% or more, less than 90%)

From patent publication US9738634B2, “Heterocyclic amide compound and herbicide” (SYNGENTA PARTICIPATIONS AG, priority 2013, dated 2017)
